In PMC9124818 (Pharmacology Research & Perspectives, 2022):
Where “and” joins values, the source holds several entries; their conditions need not be identical. Identical values can stand only once. Like-named read-outs stand apart in the source and are kept apart here.

Experiments:
[1] = Plasma protein binding, Rapid Equilibrium Device; format: in vitro ADME; settings: pooled rat or dog plasma, pH 7.4, range
Experimental: In vitro plasma protein binding was then determined by using the Rapid Equilibrium Device (RED) with a molecular weight cutoff of 8 kDa (Thermo Fisher Scientific, Inc., Waltham, MA). […] The internal standard was niflumic acid. […] Protein binding was determined by adding a 300‐μL aliquot of the test sample or the control sample to the sample chamber of the RED and adding a 500‐μL aliquot of PBS (pH 7.4) to the buffer chamber. The device unit was sealed and incubated at 37°C for 4 h with gentle shaking (~750 rpm). After dialysis, three aliquots of the test samples (50 μL) were collected from both sample and buffer chambers and were mixed with 50 μL of methanol as “donor samples” and “acceptor samples,” respectively. […] A detailed description of the LC‐MS/MS process can be found in the Supplemental Material. Supernatant fractions were analyzed by LC‐MS/MS using an Acquity Ultra Performance Liquid Chromatography system with ethylene bridged hybrid (BEH) C18 columns (2.1 × 50 mm, 1.7 µm; Waters Corporation; Milford, MA) coupled to an API4000 mass spectrometer (AB Sciex). […] Samples were prepared in triplicate and were dialyzed for 4 h. […] Protein binding was calculated as follows: Proteinbindingratio%=100‐Unboundratio%, where Unboundratio%=AcceptorSampleConcentration/DonorSampleConcentration.

CYP2B6 = molecular target: T1, CYP2B6 (Homo sapiens, UniProt P20813); assay: Direct CYP450 inhibition in human liver microsomes (efavirenz 8-hydroxylation); settings: for Inhibition (%): FFA up to 60 µM, nFFA up to 100 µM; for Basic model: R1: R1 = 1 + (Imax,u/Ki,u)
T1 sequence (P20813 1-491): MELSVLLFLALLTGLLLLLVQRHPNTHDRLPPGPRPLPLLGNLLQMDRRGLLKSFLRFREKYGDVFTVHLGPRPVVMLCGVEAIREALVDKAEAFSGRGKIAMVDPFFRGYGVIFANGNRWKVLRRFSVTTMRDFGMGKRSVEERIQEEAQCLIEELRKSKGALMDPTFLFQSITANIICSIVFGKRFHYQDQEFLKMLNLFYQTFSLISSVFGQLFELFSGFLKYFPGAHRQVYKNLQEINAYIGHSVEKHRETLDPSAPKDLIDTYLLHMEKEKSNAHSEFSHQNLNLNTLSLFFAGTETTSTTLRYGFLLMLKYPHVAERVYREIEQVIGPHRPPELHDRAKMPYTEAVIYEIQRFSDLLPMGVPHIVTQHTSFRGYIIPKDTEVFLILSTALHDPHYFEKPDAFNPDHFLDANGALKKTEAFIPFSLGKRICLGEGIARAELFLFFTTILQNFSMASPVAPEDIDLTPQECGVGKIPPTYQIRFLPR
From the text: A mixed‐gender pool of 200 individual human liver microsomal samples was used.
This LIMS utilizes the Levenberg-Marquardt algorithm to perform nonlinear regression fitting of the data to the following 4-parameter sigmoidal-logistic IC50 equation:
As percent of control values are utilized, the Min is set to 0 and the Max is set to 100 (or other values, as appropriate). […] Therefore, when an IC50 value falls outside the concentration range studied, the IC50 values are reported to be greater than the highest concentrations of test article evaluated.

OCT2 = molecular target: T2, OCT2 (Homo sapiens, UniProt O15244); assay: Transporter inhibition, uptake of [14C]-metformin in HEK293 cells; format: in vitro ADME; settings: probe [14C]-metformin 10 μM
T2 construct: host or cells: HEK293
T2 sequence (O15244 1-555): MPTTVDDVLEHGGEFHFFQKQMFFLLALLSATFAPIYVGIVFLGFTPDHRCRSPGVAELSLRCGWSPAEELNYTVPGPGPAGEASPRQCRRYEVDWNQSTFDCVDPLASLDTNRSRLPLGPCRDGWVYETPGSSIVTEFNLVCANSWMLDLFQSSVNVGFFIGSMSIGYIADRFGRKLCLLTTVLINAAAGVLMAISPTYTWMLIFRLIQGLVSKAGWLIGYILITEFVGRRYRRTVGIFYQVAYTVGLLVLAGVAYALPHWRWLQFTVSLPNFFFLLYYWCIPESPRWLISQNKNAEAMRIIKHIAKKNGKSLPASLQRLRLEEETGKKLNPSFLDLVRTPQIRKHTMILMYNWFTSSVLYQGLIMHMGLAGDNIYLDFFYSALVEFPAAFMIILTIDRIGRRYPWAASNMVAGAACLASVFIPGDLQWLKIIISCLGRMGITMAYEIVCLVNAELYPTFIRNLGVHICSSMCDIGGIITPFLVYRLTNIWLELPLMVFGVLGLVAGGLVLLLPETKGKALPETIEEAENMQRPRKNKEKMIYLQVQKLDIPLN
From the text: Cells were then washed, lysed with scintillation cocktail, and analyzed for the probe substrate with a MicroBeta scintillation counter (PerkinElmer, Hopkinton, MA). Transcellular transporter assay conditions are described in Supplemental Table 1. Calculation of IC50 values was based on bidirectional permeability of probe substrate with and without the inhibitor in MDCKII cells expressing BCRP and in Caco‐2 cells expressing P‐gp, and transporter‐dependent uptake of probe substrate in HEK293 cells expressing all other transporters (Supplemental Table 1).
The transporter-specific uptake of the probe substrate in cells was determined by subtracting the accumulation in the control cells from the accumulation in the transporter-expressing cells.

[2] = direct inhibition, substrate efavirenz

SMILES | fraction unbound at 4 h [1] | IC50 (CYP2B6) | Inhibition (%) (CYP2B6; [2]) | Basic model: Potential for clinical inhibition (CYP2B6; substrate efavirenz) | Static mechanistic model: Potential for clinical inhibition (CYP2B6; substrate efavirenz) | Basic model: R1 (CYP2B6; substrate efavirenz) | IC50 (OCT2) | IC50 (CYP2B6; direct inhibition, human liver microsomes, substrate efavirenz)
CCNC(C)Cc1cccc(C(F)(F)F)c1 (racemic) [FFA, (RS)‐ethyl(α‐methyl‐3‐trifluoromethylphenethyl)amine, reference compound] | 0.378 to 0.538 | > 60 µM | 6.1% | No (Potential to inhibit if R1 ≥ 1.02) | No (Potential to inhibit if AUCR ≥ 1.25) | 1.01 |  | 
CC(N)Cc1cccc(C(F)(F)F)c1.Cl (stereo not drawn) [nFFA, [1‐(3‐trifluoromethyl)phenyl]propan‐2‐amine hydrochloride] |  |  | 23% | No (Potential to inhibit if R1 ≥ 1.02) | No (Potential to inhibit if AUCR ≥ 1.25) | 1.00 | 5.21 µM and 5.2 µM | > 100 µM
